Experiments:
[1] = biological target: human orexin-2 receptor (Homo sapiens (Human), UniProt O43614); assay: hOX2R FLIPR Ca2+ flux assay; type: cell-based; settings: CHO cells expressing the receptor; agonist 70 pM Ala-6,12 human orexin-A
Experimental: In a typical experiment the OX1 and OX2 receptor antagonistic activity of the compounds of the present invention was determined in accordance with the following experimental method. For intracellular calcium measurements, Chinese hamster ovary (CHO) cells expressing the rat orexin-1 receptor or the human orexin-2 receptor, are grown in Iscove's modified DMEM containing 2 mM L-glutamine, […], 1% hypoxanthine-thymidine supplement, 100 U/ml penicillin, 100 μg/ml streptomycin and 10% heat-inactivated fetal calf serum (FCS). The cells are seeded at 20,000 cells/well into Becton-Dickinson black 384-well clear bottom sterile plates coated with poly-D-lysine. All reagents were from GIBCO-Invitrogen Corp. The seeded plates are incubated overnight at 37° C. and 5% CO2. Ala-6,12 human orexin-A as the agonist is prepared as a 1 mM stock solution in 1% bovine serum albumin (BSA) and diluted in assay buffer (HBSS containing 20 mM HEPES, 0.1% BSA and 2.5 mM probenecid, pH7.4) for use in the assay at a final concentration of 70 pM. Test compounds are prepared as 10 mM stock solution in DMSO, then diluted in 384-well plates, first in DMSO, then assay buffer. On the day of the assay, cells are washed 3 times with 100 μl assay buffer and then incubated for 60 min (37° C., 5% CO2) in 60 μl assay buffer containing 1 μM Fluo-4AM ester, 0.02% pluronic acid, and 1% BSA. The dye loading solution is then aspirated and cells are washed 3 times with 100 μl assay buffer. 30 μl of that same buffer is left in each well. Within the Fluorescent Imaging Plate Reader (FLIPR, Molecular Devices), test compounds are added to the plate in a volume of 25 μl, incubated for 5 min and finally 25 μl of agonist is added. Fluorescence is measured for each well at 1 second intervals for 5 minutes and the height of each fluorescence peak is compared to the height of the fluorescence peak induced by 70 pM Ala-6,12 orexin-A with buffer in place of antagonist. […] Alternatively, compound potency can be assessed by a radioligand binding assay (described in Bergman et. al. Bioorg. Med. Chem. Lett. 2008, 18, 1425-1430) in which the inhibition constant (Ki) is determined in membranes prepared from CHO cells expressing either the OX1 or OX2 receptor. The intrinsic orexin receptor antagonist activity of a compound which may be used in the present invention may be determined by these assays.

[2] = biological target: hOX1R (Homo sapiens, UniProt O43613); assay: hOX1R FLIPR Ca2+ flux assay; type: cell-based; settings: CHO cells expressing the receptor; agonist 70 pM Ala-6,12 human orexin-A

Sequence of human orexin-2 receptor (O43614 whole entry): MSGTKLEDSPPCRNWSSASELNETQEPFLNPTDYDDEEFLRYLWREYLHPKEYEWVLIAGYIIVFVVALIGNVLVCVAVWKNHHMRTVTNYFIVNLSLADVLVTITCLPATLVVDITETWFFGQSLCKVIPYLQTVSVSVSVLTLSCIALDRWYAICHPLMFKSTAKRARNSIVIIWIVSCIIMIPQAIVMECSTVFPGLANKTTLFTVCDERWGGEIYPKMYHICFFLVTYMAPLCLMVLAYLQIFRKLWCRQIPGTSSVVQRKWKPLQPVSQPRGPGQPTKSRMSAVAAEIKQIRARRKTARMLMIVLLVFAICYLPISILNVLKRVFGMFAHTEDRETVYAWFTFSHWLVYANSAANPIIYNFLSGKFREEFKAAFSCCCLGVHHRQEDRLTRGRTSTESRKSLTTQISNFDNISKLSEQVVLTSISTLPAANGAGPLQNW

CC(C)(O)c1cccc(N2CC[C@@H]3CCN(C(=O)c4ccccc4-n4nccn4)C[C@@H]32)c1 [Example C4, 2-{3-[(3aR, 7aR)-6-{[2-(2H-1,2,3-triazol-2-yl)phenyl]carbonyl}octahydro-1H-pyrrolo[2,3-c]pyridin-1-yl]phenyl}propan-2-ol] was tested, and the IC50 [1] was 0.0486 µM and the IC50 [2] was 10 µM.

Compound CC(C)(O)c1ccnc(N2CC[C@@H]3CCN(C(=O)c4ccccc4-n4nccn4)C[C@@H]32)c1 [Example C5, 2-{2-[(3aR, 7aR)-6-{[2-(2H-1,2,3-triazol-2-yl)phenyl]carbonyl}octahydro-1H-pyrrolo[2,3-c]pyridin-1-yl]pyridin-4-yl}propan-2-ol] has an IC50 [1] of 0.125 µM and an IC50 [2] of 10 µM.

Compound CC(C)(O)c1cnc(N2CC[C@@H]3CCN(C(=O)c4ccccc4-n4nccn4)C[C@@H]32)nc1 [Example C6, 2-{2-[(3aR, 7aR)-6-{[2-(2H-1,2,3-triazol-2-yl)phenyl]carbonyl}octahydro-1H-pyrrolo[2,3-c]pyridin-1-yl]pyrimidin-5-yl}propan-2-ol] has an IC50 [1] of 1.83 µM and an IC50 [2] of 10 µM.

N#Cc1ccnc(N2CC[C@@H]3CCN(C(=O)c4cccnc4OCC(F)F)C[C@@H]32)c1 [Example D1, 2-((3aR,7aR)-6-(2-(2,2-difluoroethoxy)nicotinoyl)octahydro-1H-pyrrolo[2,3-c]pyridin-1-yl)isonicotinonitrile] was tested, and the IC50 [1] was 0.147 µM and the IC50 [2] was 10 µM.

With CCOc1ccccc1C(=O)N1CC[C@H]2CCN(c3cc(C#N)ccn3)[C@H]2C1 [Example E1, 2-((3aR,7aR)-6-(2-ethoxybenzol)octahydro-1H-pyrrolo[2,3-c]pyridin-1-yl)isonicotinonitrile] the IC50 [1] was 0.11 µM and the IC50 [2] was 10 µM.

For CCCc1ccccc1C(=O)N1CC[C@H]2CCN(c3cc(C#N)ccn3)[C@H]2C1 [Example E2, 2-((3aR, 7aR)-6-(2-propylbenzoyl)octahydro-1H-pyrrolo[2,3-c]pyridin-1-yl)isonicotinonitrile], the IC50 [1] was 0.0594 µM and the IC50 [2] was 10 µM.

In the case of N#Cc1ccnc(N2CC[C@@H]3CCN(C(=O)c4ccccc4CC(F)(F)F)C[C@@H]32)c1 [Example E3, 2-((3aR, 7aR)-6-(2-(2,2,2-trifluoroethyl)benzoyl)octahydro-1H-pyrrolo[2,3-c]pyridin-1-yl)isonicotinonitrile], the IC50 [1] is reported as 0.0481 µM and the IC50 [2] is reported as 10 µM.

N#Cc1ccnc(N2CC[C@@H]3CCN(C(=O)c4ccc(F)cc4-n4nccn4)C[C@@H]32)c1 [Example E4, 2-((3aR, 7aR)-6-(4-fluoro-2(2H-1,2,3-triazol-2-yl)benzoyl)octahydro-1H-pyrrolo[2,3-c]pyridin-1-yl)isonicotinonitrile] gave an IC50 [1] of 0.0627 µM and an IC50 [2] of at least 10 µM.

N#Cc1ccnc(N2CC[C@@H]3CCN(C(=O)c4cccnc4-c4ccccc4)C[C@@H]32)c1 [Example E5, 2-((3aR, 7aR)-6-(2-phenylnicotinoyl)octahydro-1H-pyrrolo[2,3-c]pyridin-1-yl)isonicotinonitrile] was tested, and the IC50 [1] was 0.0939 µM and the IC50 [2] was 10 µM.

Work on CCOc1ncccc1C(=O)N1CC[C@H]2CCN(c3cc(C#N)ccn3)[C@H]2C1 [Example E6, 2-{(3aR, 7aR)-6-[(2-ethoxypyridin-3-yl)carbonyl]octahydro-1H-pyrrolo[2,3-c]pyridin-1-yl}pyridine-4-carbonitrile] yielded an IC50 [1] of 1.15 µM and an IC50 [2] of 10 µM.

For N#Cc1ccnc(N2CC[C@@H]3CCN(C(=O)c4cccnc4OCC(F)(F)F)C[C@@H]32)c1 [Example E7, 2-[(3aR, 7aR)-6-{[2-(2,2,2-trifluoroethoxy)pyridin-3-yl]carbonyl}octahydro-1H-pyrrolo[2,3-c]pyridin-1-yl]pyridine-4-carbonitrile], the IC50 [1] was 0.122 µM and the IC50 [2] was 10 µM.

N#Cc1ccnc(N2CC[C@@H]3CCN(C(=O)c4ccccc4CC(F)F)C[C@@H]32)c1 [Example E8, 2-[(3aR, 7aR)-6-{[2-(2,2-difluoroethyl)phenyl]carbonyl}octahydro-1H-pyrrolo[2,3-c]pyridin-1-yl]pyridine-4-carbonitrile] was tested, and the IC50 [1] was 0.512 µM and the IC50 [2] was 10 µM.

N#Cc1ccnc(N2CC[C@@H]3CCN(C(=O)c4ccccc4OCC(F)(F)F)C[C@@H]32)c1 [Example E9, 2-[(3aR, 7aR)-6-{[2-(2,2,2-trifluoroethoxy)phenyl]carbonyl}octahydro-1H-pyrrolo[2,3-c]pyridin-1-yl]pyridine-4-carbonitrile] was tested, and the IC50 [1] was 0.319 µM and the IC50 [2] was at least 10 µM.

N#Cc1ccnc(N2CC[C@@H]3CCN(C(=O)c4ccccc4OCC(F)F)C[C@@H]32)c1 [Example E10, 2-[(3aR, 7aR)-6-{[2-(2,2-difluoroethoxy)phenyl]carbonyl}octahydro-1H-pyrrolo[2,3-c]pyridin-1-yl]pyridine-4-carbonitrile] gave an IC50 [1] of 0.139 µM and an IC50 [2] of 10 µM.

In the case of N#Cc1ccnc(N2CC[C@@H]3CCN(C(=O)c4cccnc4CC(F)(F)F)C[C@@H]32)c1 [Example E11, 2-[(3aR, 7aR)-6-{[2-(2,2,2-trifluoroethyl)pyridin-3-yl]carbonyl}octahydro-1H-pyrrolo[2,3-c]pyridin-1-yl]pyridine-4-carbonitrile], the IC50 [1] is reported as 2.11 µM and the IC50 [2] is reported as 10 µM.

N#Cc1ccnc(N2CC[C@@H]3CCN(C(=O)c4ccccc4C4CC4)C[C@@H]32)c1 [Example E12, 2-{(3aR, 7aR)-6-[(2-cyclopropylphenyl)carbonyl]octahydro-1H-pyrrolo[2,3-c]pyridin-1-yl}pyridine-4-carbonitrile] gave an IC50 [1] of 0.0816 µM and an IC50 [2] of 10 µM.

COc1ccc(C(=O)N2CC[C@H]3CCN(c4cc(C#N)ccn4)[C@H]3C2)c(C2CC2)n1 [Example E13, 2-{(3aR, 7aR)-6-[(2-cyclopropyl-6-methoxypyridin-3-yl)carbonyl]octahydro-1H-pyrrolo[2,3-c]pyridin-1-yl}pyridine-4-carbonitrile] gave an IC50 [1] of 0.98 µM and an IC50 [2] of 10 µM.

With N#Cc1ccnc(N2CC[C@@H]3CCN(C(=O)c4ccccc4-n4cccn4)C[C@@H]32)c1 [Example E14, 2-[(3aR, 7aR)-6-{[2-(1H-pyrazol-1-yl)phenyl]carbonyl}octahydro-1H-pyrrolo[2,3-c]pyridin-1-yl]pyridine-4-carbonitrile] the IC50 [1] was 0.256 µM and the IC50 [2] was 10 µM.

With N#Cc1ccnc(N2CC[C@@H]3CCN(C(=O)c4ccccc4C4CCC4)C[C@@H]32)c1 [Example E15, 2-{(3aR, 7aR)-6-[(2-cyclobutylphenyl)carbonyl]octahydro-1H-pyrrolo[2,3-c]pyridin-1-yl}pyridine-4-carbonitrile] the IC50 [1] was 0.0311 µM and the IC50 [2] was 9.72 µM.

N#Cc1ccnc(N2CC[C@@H]3CCN(C(=O)c4ccccc4N4CCCC4)C[C@@H]32)c1 [Example E16, 2-{(3aR, 7aR)-6-[(2-pyrrolidin-1-ylphenyl)carbonyl]octahydro-1H-pyrrolo[2,3-c]pyridin-1-yl}pyridine-4-carbonitrile] showed an IC50 [1] of 0.0989 µM and an IC50 [2] of 10 µM.

With N#Cc1ccnc(N2CC[C@@H]3CCN(C(=O)c4nccnc4N4CCCC4)C[C@@H]32)c1 [Example E17, 2-{(3aR, 7aR)-6-[(3-pyrrolidin-1-ylpyrazin-2-yl)carbonyl]octahydro-1H-pyrrolo[2,3-c]pyridin-1-yl}pyridine-4-carbonitrile] the IC50 [1] was 10 µM and the IC50 [2] was 10 µM.

N#Cc1ccnc(N2CC[C@@H]3CCN(C(=O)c4ncccc4-c4ccccc4)C[C@@H]32)c1 [Example E18, 2-{(3aR, 7aR)-6-[(3-phenylpyridin-2-yl)carbonyl]octahydro-1H-pyrrolo[2,3-c]pyridin-1-yl}pyridine-4-carbonitrile] was tested, and the IC50 [1] was 0.0769 µM and the IC50 [2] was at least 10 µM.

CC(C)Oc1ncccc1C(=O)N1CC[C@H]2CCN(c3cc(C#N)ccn3)[C@H]2C1 [Example E19, 2-[(3aR, 7aR)-6-{[2-(1-methylethoxy)pyridin-3-yl]carbonyl}octahydro-1H-pyrrolo[2,3-c]pyridin-1-yl]pyridine-4-carbonitrile] gave an IC50 [1] of 1.4 µM and an IC50 [2] of 10 µM.

For N#Cc1ccnc(N2CC[C@@H]3CCN(C(=O)c4ncccc4-n4nccn4)C[C@@H]32)c1 [Example E20, 2-[(3aR, 7aR)-6-{[3-(2H-1,2,3-triazol-2-yl)pyridin-2-yl]carbonyl}octahydro-1H-pyrrolo[2,3-c]pyridin-1-yl]pyridine-4-carbonitrile], the IC50 [1] was 1.5 µM and the IC50 [2] was at least 10 µM.

N#Cc1ccnc(N2CC[C@@H]3CCN(C(=O)c4ccccc4OC(F)F)C[C@@H]32)c1 [Example E21, 2-[(3aR, 7aR)-6-{[2-(difluoromethoxy)phenyl]carbonyl}octa-hydro-1H-pyrrolo[2,3-c]pyridin-1-yl]pyridine-4-carbonitrile] gave an IC50 [1] of 1.52 µM and an IC50 [2] of 10 µM.
